Data as given in PubChem BioAssay AID248 (DTP/NCI, 2004).
Inconclusive results and toxic doses are left out. Cut-off read from the data, not from the text of the source: active = T/C of 150% or more; inactive = T/C below 125%.

System: L1210 leukemia ip in BDF1 mice, survival T/C
Experiment: NCI In Vivo Anticancer Drug Screen. Data for tumor model L1210 Leukemia (intraperitoneal) in B6D2F1 (BDF1) mice
Details: endpoint: mean survival time, higher = longer survival
Procedure, shortened: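 Value reflects the ratio of survival in compound-treated mice to survival in vehicle-treated controls, with both groups carrying the same transplanted tumor.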

[1] = dose: 5.0 mg/kg/injection, schedule: Q01DX001 (ip), vehicle: saline
[2] = dose: 10.0 mg/kg/injection, schedule: Q01DX001 (ip), vehicle: saline
[3] = dose: 20.0 mg/kg/injection, schedule: Q01DX001 (ip), vehicle: saline
[4] = dose: 40.0 mg/kg/injection, schedule: Q01DX001 (ip), vehicle: saline
[5] = dose: 50.0 mg/kg/injection, schedule: Q01DX009 (ip), vehicle: Klucel (hydroxypropylcellulose) (HPC)

Measured: T/C

CCOP(=O)(SCC)N(CC)CC (stereo unspecified)
inactive: [1] 108 % of control | [2] 104 % of control | [3] 104 % of control | [4] 115 % of control | dose: 80.0 mg/kg/injection, schedule: Q01DX001 (ip), vehicle: saline 106 % of control

O=c1cc(CO)[nH]c(=O)[nH]1
inactive: dose: 50.0 mg/kg/injection, schedule: Q01DX001 (ip), vehicle: saline 104 % of control | [5] 94 % of control | dose: 100.0 mg/kg/injection, schedule: Q01DX001 (ip), vehicle: saline 102 % of control | dose: 100.0 mg/kg/injection, schedule: Q01DX009 (ip), vehicle: Klucel (hydroxypropylcellulose) (HPC) 90 % of control | dose: 200.0 mg/kg/injection, schedule: Q01DX001 (ip), vehicle: saline 98 % of control | dose: 200.0 mg/kg/injection, schedule: Q01DX009 (ip), vehicle: Klucel (hydroxypropylcellulose) (HPC) 97 % of control | dose: 400.0 mg/kg/injection, schedule: Q01DX001 (ip), vehicle: saline 98 % of control

Nc1ccc(N)cc1
inactive: dose: 1.5 mg/kg/injection, schedule: Q01DX009 (ip), vehicle: DMSO 94 % of control | dose: 3.0 mg/kg/injection, schedule: Q01DX009 (ip), vehicle: DMSO 92 % of control | [1] 98 % of control | dose: 5.0 mg/kg/injection, schedule: Q01DX009 (ip), vehicle: saline with Tween-80 100 % of control | dose: 5.0 mg/kg/injection, schedule: Q04DX003 (ip), vehicle: saline 103 % of control | dose: 6.0 mg/kg/injection, schedule: Q01DX009 (ip), vehicle: DMSO 92 % of control | dose: 6.25 mg/kg/injection, schedule: Q01DX009 (ip), vehicle: DMSO 94 % of control | [2] 102 % of control | dose: 10.0 mg/kg/injection, schedule: Q01DX009 (ip), vehicle: saline with Tween-80 96 % of control | dose: 10.0 mg/kg/injection, schedule: Q04DX003 (ip), vehicle: saline 98 % of control | dose: 12.5 mg/kg/injection, schedule: Q01DX009 (ip), vehicle: DMSO 89 % of control | [3] 106 % of control | dose: 20.0 mg/kg/injection, schedule: Q01DX009 (ip), vehicle: saline with Tween-80 99 % of control | dose: 20.0 mg/kg/injection, schedule: Q04DX003 (ip), vehicle: saline 97 % of control | [4] 106 % of control | dose: 100.0 mg/kg/injection, schedule: Q04DX003 (ip), vehicle: DMSO 91 % of control | dose: 200.0 mg/kg/injection, schedule: Q04DX003 (ip), vehicle: DMSO 88 % of control

CCSC(=O)N1c2ccc(OC)cc2C=CC1C#N (stereo unspecified)
inactive: dose: 100.0 mg/kg/injection, schedule: Q01DX009 (ip), vehicle: saline with Tween-80 119 % of control | dose: 100.0 mg/kg/injection, schedule: Q04DX003 (ip), vehicle: saline with Tween-80 101 % of control | dose: 200.0 mg/kg/injection, schedule: Q01DX009 (ip), vehicle: saline with Tween-80 124 % of control | dose: 200.0 mg/kg/injection, schedule: Q04DX003 (ip), vehicle: saline with Tween-80 97 % of control | dose: 400.0 mg/kg/injection, schedule: Q01DX009 (ip), vehicle: saline with Tween-80 119 % of control | dose: 400.0 mg/kg/injection, schedule: Q04DX003 (ip), vehicle: saline with Tween-80 111 % of control

Cc1cc(C)c(-c2c(O)c(Br)c(-c3c(C)cc(C)c(Br)c3C)c(O)c2Br)c(C)c1Br
inactive: dose: 12.5 mg/kg/injection, schedule: Q01DX009 (ip), vehicle: Klucel (hydroxypropylcellulose) (HPC) 100 % of control | dose: 12.5 mg/kg/injection, schedule: Q04DX003 (ip), vehicle: Klucel (hydroxypropylcellulose) (HPC) 100 % of control | dose: 25.0 mg/kg/injection, schedule: Q01DX009 (ip), vehicle: Klucel (hydroxypropylcellulose) (HPC) 103 % of control | dose: 25.0 mg/kg/injection, schedule: Q04DX003 (ip), vehicle: Klucel (hydroxypropylcellulose) (HPC) 97 % of control | [5] 94 % of control | dose: 50.0 mg/kg/injection, schedule: Q04DX003 (ip), vehicle: Klucel (hydroxypropylcellulose) (HPC) 102 % of control | dose: 75.0 mg/kg/injection, schedule: Q01DX009 (ip), vehicle: Klucel (hydroxypropylcellulose) (HPC) 120 % of control

N=C(N)N=Nc1cc(O)c(NN=C(N)N)cc1O
inactive: dose: 7.5 mg/kg/injection, schedule: Q01DX Z (oral), vehicle: saline 95 % of control | dose: 15.0 mg/kg/injection, schedule: Q01DX Z (ip), vehicle: saline 98 % of control | dose: 15.0 mg/kg/injection, schedule: Q01DX Z (oral), vehicle: saline 96 % of control | dose: 30.0 mg/kg/injection, schedule: Q01DX Z (oral), vehicle: saline 98 % of control

O=c1[nH]c(=O)c2cc3ccccc3nc2[nH]1
inactive: dose: 50.0 mg/kg/injection, schedule: Q01DX001 (ip), vehicle: carboxymethylcellulose (CMC) 97 % of control | dose: 100.0 mg/kg/injection, schedule: Q01DX001 (ip), vehicle: carboxymethylcellulose (CMC) 101 % of control | dose: 200.0 mg/kg/injection, schedule: Q01DX001 (ip), vehicle: carboxymethylcellulose (CMC) 95 % of control | dose: 400.0 mg/kg/injection, schedule: Q01DX001 (ip), vehicle: carboxymethylcellulose (CMC) 97 % of control

COC1CN(C(C)(C)C)C1
inactive: dose: 100.0 mg/kg/injection, schedule: Q04DX003 (ip), vehicle: saline 103 % of control
